Test results as given in publication PMC9431032, “Boosting Cosmeceutical Peptides: Coupling Imidazolium-Based Ionic Liquids to Pentapeptide-4 Originates New Leads with Antimicrobial and Collagenesis-Inducing Activities” (Microbiology Spectrum, 2022).
≈ marks a conversion by molar mass, not a printed value. Where “and” joins values, the source holds several entries; their conditions need not be identical. Equal values may be shown once. Read-outs that look alike come from different tables or passages of the source. Peptide text beside a SMILES is read from it. * marks the point of attachment. X2 = Cn1cc[n+](Cc2cn(CC(=O)*)nn2)c1; Palmitoyl = CCCCCCCCCCCCCCCC(=O)*

Assays:
C. albicans ATCC 90028 = assay: microbe, parasite or virus in culture; settings: Candida albicans, ATCC90028
Method: (§1) The MIC values were determined according to the European Committee on Antimicrobial Susceptibility Testing (EUCAST) protocol ([36]) and are shown on Table 4.
(§2) (iii) Antifungal activity.

C. glabrata ATCC 90030 = assay: microbe, parasite or virus in culture; settings: Nakaseomyces glabratus, ATCC90030
Method: as §1, §2

[1] = system: C. parapsilosis ATCC 22019; assay: microbe, parasite or virus in culture; settings: Lodderomyces parapsilosis, ATCC22019
Method: as §1, §2

E. coli ATCC 25922 = assay: microbe, parasite or virus in culture
Method: (§3) The antimicrobial activity of the IL-KTTKS conjugates was assessed in vitro against reference bacterial strains (American Type Culture Collection, ATCC). The minimal inhibitory concentration (MIC) was determined according to the Clinical and Laboratory Standards Institute (CLSI) guidelines ([28]) against Gram-positive (S. aureus, Enterococcus faecalis) and Gram-negative (Escherichia coli, Pseudomonas aeruginosa) bacteria.
(§4) (i) Antibacterial activity in standard conditions. The test conjugates and reference compounds were evaluated for their activity against three reference strains of Gram-negative bacteria, namely, E. coli (ATCC 25922), Pseudomonas aeruginosa (ATCC 27853), and Klebsiella pneumoniae (ATCC 13883), and the four following reference strains of Gram-positive bacteria, Staphylococcus aureus (ATCC 29213), S. Epidermidis (ATCC 14990), E. faecalis (ATCC 29212), and Streptococcus pyogenes (ATCC 19615). […] MBC values were also determined as previously reported ([52]).

E. faecalis ATCC 29212 = assay: microbe, parasite or virus in culture
Method: as §3, §4

P. aeruginosa ATCC 27853 = assay: microbe, parasite or virus in culture
Method: as §3, §4

S. aureus ATCC 29213 = assay: microbe, parasite or virus in culture
Method: as §3, §4

[2] = system: HaCaT cells (human immortalized keratinocytes); assay: cells; assay type: cell-based
Method: (§5) The cytotoxicity of KTTK(C16Im)S and C16Im-KTTKS conjugates was assessed on human foreskin fibroblasts (HFF-1) and human immortalized keratinocytes (HaCaT). […] In turn, the parent IL [C16 M1Im][Br] and its […] equimolar mixture with PP4, KTTKS:[C16 M1Im][Br]
(§6) (iv) Toxicity to human cells. HaCat and HFF-1 were seeded at 4 × 10^4cell/mL in 96-well plate using in Dulbecco’s Modified Eagle Medium (DMEM; CLS) supplemented with 2% FBS (Biowest) and 1% of antibiotic/antimycotic solution (100 units/mL of penicillin, 10 mg/mL of streptomycin, and 0.25 mg/mL of amphotericin B, Sigma-Aldrich). The plate was incubated at 37°C in a 5% CO2 atmosphere, and the cells allowed to grow until confluence was reached. Then, solutions of the test compounds in DMEM supplemented with 2% FBS, in a concentration range between 6.3 and 100 μM, were added to the wells. After 24 h of incubation at 37°C in a 5% CO2 atmosphere, the cell viability was assessed through the resazurin reduction assay. Briefly, the medium was removed and then 20 μL of the alamarBlue Cell Viability Reagent (Resazurin sodium salt, Sigma-Aldrich) at 0.15 mg/mL in 100 μL of Hank’s Balanced Salt Solution (HBSS; Sigma-Aldrich) were added to each well; the plate was next incubated for 2 h at 37°C in a 5% CO2 atmosphere, after which fluorescence was read at 560/590 nm on a Flex Station 3 multi-mode microplate reader (Molecular Devices) ([53]). The IC50 values were thus determined using the GraphPad Prism 9.0 software, by applying the equation log(inhibitor) versus response with variable slope (four parameters).

[3] = system: HFF-1 cells (human foreskin fibroblasts); assay type: cell-based; settings: 24 h
Method: as §5, §6

[4] = assay type: physicochemical
Method: as §3
(vi) Quantitation of final peptides and their IL conjugates. Peptide stock solutions were prepared at approximately 10 mg/mL in distilled water except for C16-KTTKS-OH that was solubilized in DMSO. Accurate quantitation of the peptide solutions were quantitated by microvolume spectrophotometry at 205 nm, using a Thermo Scientific NanoDrop One system and quantitation method 31 that assumes an extinction coefficient ε205 of 31 mL·mg^−1·cm^−1 ([50]). […] To this end, the peptide was hydrolyzed using 6 M aqueous hydrochloric acid containing phenol (10% vol/vol), for 24 h at 110°C. The hydrolysate was next evaporated to dryness and the residue dissolved in HPLC-grade water (500 μL) containing α-aminobutyric acid as internal standard. The mixture thus obtained was then derivatized by the AccQ-Tag protocol from Waters using 6-aminoquinoyl-N-hydroxysuccinimidyl carbamate ([51]), and the resulting solution analyzed by HPLC (WATERS 600) with the UV-detector (WATERS 2487) set at 254 nm.

K. pneumonia ATCC 138830 = assay: microbe, parasite or virus in culture; settings: Klebsiella pneumoniae, ATCC138830
Method: as §3, §4

[5] = E. coli ATCC 25922, broth microdilution in cation-adjusted MHB2, CLSI, n = 3
[6] = E. faecalis ATCC 29212, broth microdilution in cation-adjusted MHB2, CLSI, n = 3
[7] = P. aeruginosa ATCC 27853, broth microdilution in cation-adjusted MHB2, CLSI, n = 3
[8] = S. aureus ATCC 29213, broth microdilution in cation-adjusted MHB2, CLSI, n = 3
[9] = Enterococcus faecalis, ATCC29212
[10] = Staphylococcus aureus, ATCC29213

## OC(Cn1cncn1)(Cn1cncn1)c1ccc(F)cc1F [Fluconazole, reference compound]
C. albicans ATCC 90028
  MIC: 1.6 µM (≈ 0.49 µg/mL)
C. glabrata ATCC 90030
  MIC: 26 µM (≈ 7.96 µg/mL)
[1]
  MIC: 6.5 µM (≈ 1.99 µg/mL)

## C[C@@H](O)[C@H](NC(=O)[C@@H](NC(=O)[C@@H](N)CCCCn1cc(C[n+]2ccn(C)c2)nn1)[C@@H](C)O)C(=O)N[C@@H](CCCCn1cc(C[n+]2ccn(C)c2)nn1)C(=O)N[C@@H](CO)C(N)=O [K(MeIm)TTK(MeIm)S]
E. coli ATCC 25922; [5]
  MIC: > 1245.5 μM and > 1067.4 μg/mL
E. faecalis ATCC 29212; [6]
  MIC: > 1245.5 μM and > 1067.4 μg/mL
P. aeruginosa ATCC 27853; [7]
  MIC: > 1245.5 μM and > 1067.4 μg/mL
S. aureus ATCC 29213; [8]
  MIC: > 1245.5 μM and > 1067.4 μg/mL

## C[C@@H](O)[C@H](NC(=O)[C@@H](NC(=O)[C@@H](N)CCCCn1cc(C[n+]2ccn(C)c2)nn1)[C@@H](C)O)C(=O)N[C@@H](CCCCN)C(=O)N[C@@H](CO)C(N)=O [K(MeIm)TTKS]
E. coli ATCC 25922; [5]
  MIC: > 1030.1 μM and > 731.2 μg/mL
E. faecalis ATCC 29212; [6]
  MIC: > 1030.1 μM and > 731.2 μg/mL
P. aeruginosa ATCC 27853; [7]
  MIC: > 1030.1 μM and > 731.2 μg/mL
S. aureus ATCC 29213; [8]
  MIC: > 1030.1 μM and > 731.2 μg/mL

## CCCCCCCCCCCCCCn1cc[n+](Cc2cn(CCCC[C@H](NC(=O)[C@@H](NC(=O)[C@@H](NC(=O)[C@@H](N)CCCCN)[C@@H](C)O)[C@@H](C)O)C(=O)N[C@@H](CO)C(N)=O)nn2)c1 [KTTK(C14Im)S]
E. coli ATCC 25922; [5]
  MIC: 29.5 μM and 26.3 μg/mL
E. faecalis ATCC 29212; [6]
  MIC: 58.9 μM and 52.6 μg/mL
P. aeruginosa ATCC 27853; [7]
  MIC: 58.9 μM and 52.6 μg/mL
S. aureus ATCC 29213; [8]
  MIC: 29.5 μM and 26.3 μg/mL

## C[C@@H](O)[C@H](NC(=O)[C@@H](NC(=O)[C@@H](N)CCCCN)[C@@H](C)O)C(=O)N[C@@H](CCCCn1cc(C[n+]2ccn(C)c2)nn1)C(=O)N[C@@H](CO)C(N)=O [KTTK(MeIm)S]
E. coli ATCC 25922; [5]
  MIC: > 954.2 μM and > 677.3 μg/mL
E. faecalis ATCC 29212; [6]
  MIC: > 954.2 μM and > 677.3 μg/mL
P. aeruginosa ATCC 27853; [7]
  MIC: > 954.2 μM and > 677.3 μg/mL
S. aureus ATCC 29213; [8]
  MIC: > 954.2 μM and > 677.3 μg/mL

## C[C@@H](O)[C@H](NC(=O)[C@H](CCCCN)NC(=O)Cn1cc(C[n+]2ccn(C)c2)nn1)C(=O)N[C@H](C(=O)N[C@@H](CCCCN)C(=O)N[C@@H](CO)C(N)=O)[C@@H](C)O [MeIm-KTTKS] (X2-KTTKS-NH2)
E. coli ATCC 25922; [5]
  MIC: > 825.9 μM and > 633.4 μg/mL
E. faecalis ATCC 29212; [6]
  MIC: > 825.9 μM and > 633.4 μg/mL
P. aeruginosa ATCC 27853; [7]
  MIC: > 825.9 μM and > 633.4 μg/mL
S. aureus ATCC 29213; [8]
  MIC: > 825.9 μM and > 633.4 μg/mL

## CCCCCCCCCCCCCCCC(=O)N[C@@H](CCCCN)C(=O)N[C@H](C(=O)N[C@H](C(=O)N[C@@H](CCCCN)C(=O)N[C@@H](CO)C(=O)O)[C@@H](C)O)[C@@H](C)O [Peptide C16-KTTKS-OH] (Palmitoyl-KTTKS-OH)
[2]; 24 h
  IC50: > 100 µM
[3]
  IC50: 79.7 ± 2.82 µM
[4]
  Behaviour when diluted in cation-adjusted Mueller-Hinton broth (MHB2): precipitated
  Solubility in water: poor solubility in water
  Solvent in which the peptide was soluble: dimethyl sulfoxide (DMSO)

## CCCCCCCCCCCCCCCCn1cc[n+](C)c1 [[C16 M1Im][Br], 1-hexadecyl-3-methylimidazolium bromide, reference compound]
E. coli ATCC 25922; Escherichia coli, ATCC25922
  MIC: 60 µM
E. faecalis ATCC 29212; [9]
  MBC: 15 µM
  MIC: 0.94 µM
K. pneumonia ATCC 138830
  MIC: 60 µM
P. aeruginosa ATCC 27853; Pseudomonas aeruginosa, ATCC27853
  MIC: > 240 µM
S. aureus ATCC 29213; [10]
  MBC: 30 µM
  MIC: 0.94 µM
C. albicans ATCC 90028
  MIC: 0.93 µM
C. glabrata ATCC 90030
  MIC: 0.93 µM
[1]
  MIC: 0.93 µM
[2]; Homo sapiens, HaCaT, 24 h incubation, 6.3-100 μM, resazurin, mean ± SEM of 2 independent experiments (n = 8), read-out: IC50 ± SEM
  IC50: 6.27 ± 1.02 µM

## C16-KTTKS-NH2 [C-terminal carboxamide analogue of Matrixyl]
[4]
  Behaviour when diluted in cation-adjusted Mueller-Hinton broth (MHB2): precipitated
  Solvent in which the peptide was soluble: water
